From patent publication US11072780B2, “Method of differentiating human pluripotent cells into cardiac fibroblasts” (Wisconsin Alumni Research Foundation, priority 2016, dated 2021)

How the values were obtained:
[1] = tested on: hPSC-derived cardiac mesodermal progenitors; assay: Cardiac fibroblast differentiation induced by bFGF at stage-specific progenitors, flow cytometry at 20 days; type: cell-based
Description: (§1) Differentiation of hPSCs to cardiac fibroblasts: Human PSCs were dissociated with 1 ml/well Versene solution (Invitrogen) at 37° C. for 5 minutes, and seeded on Matrigel™ (GFR, BD Biosciences) coated 6-well plates at the density of 1.5×10^6 cells/well in mTeSR1 medium supplemented with 10 μM ROCK inhibitor (Y-27632) (Tocris). Cells were cultured for 5-6 days in mTeSR1 medium with medium change daily until the cells reached 100% confluence when differentiation started (day 0). At day 0, the medium was changed to 2.5 ml RPMI+B27 without insulin (Invitrogen) and supplemented with 12 μM CHIR99021 (Tocris) and cells were treated in this medium for 24 hrs (day 1). At day 1, medium was changed to 3 ml RPMI+B27 without insulin and cells were cultured in this medium for another day (day 2). At day 2, the medium was changed to 2.5 ml of the defined fibroblast culture medium (Table 1) supplemented with bFGF (WiCell). Methods using L-glutamine in place of GlutaMAX were also successful. Cells were fed every other day and cultured until day 20 for flow cytometry analysis and subculture of cardiac fibroblasts.
Flow Cytometry: Cells were detached from cell culture plates by incubation with 0.25% trypsin-EDTA (Invitrogen) plus 2% chick serum (Sigma) for 5 minutes at 37° C. Cells were vortexed to disrupt the aggregates followed by neutralization by adding equal volume of EB20 medium (Zhang et al., Circ Res. 2009). Cells were counted and 0.5-1 million cells were used as the sample size for labeling. Cells were fixed in 1% paraformaldehyde in a 37° C. water bath for 10 minutes in the dark. For labeling intracellular markers, cells were permeabilized in ice-cold 90% methanol for 30 minutes on ice. Cells were washed once in FACS buffer (PBS without Ca/Mg2^+, 0.5% BSA, 0.1% NaN3), centrifuged and resuspended in about 50 μl FACS buffer with (for intracellular markers) or without 0.1% Triton X-100. For labeling surface markers, appropriate amounts of the conjugated antibodies were added according to the manufacturer's instruction to the cells in FACS buffer to make the final volume of 100 μl with FACS buffer, and incubated in the dark for 30 minutes at room temperature. Cells were washed once with 3 ml FACS buffer and resuspended in 300-500 μl FACS buffer for analysis. […] Data were collected on a FACSCalibur™ flow cytometer (Beckton Dickinson) and analyzed using FlowJo™ software.
Our goal was to bias the differentiation to generate cardiac fibroblasts rather than cardiomyocytes. […] Following 20 days of differentiation, cells were analyzed by flow cytometry using a specific fibroblast antibody (mouse anti-human fibroblast, clone TE-7) and an antibody to sarcomeric myosin (MF20) expressed in cardiomyocytes. […]

[2] = tested on: hPSCs; assay: Flow cytometry of stage-specific progenitors in GiWi protocol; type: cell-based, human; settings: after 24 hours of treatment
Description: Differentiation of hPSCs to cardiomyocytes using GiWi protocol: Human PSCs were dissociated with 1 ml/well Versene solution at 37° C. for 5 minutes, and seeded on Matrigel™ coated 6-well plates at the density of 1.5×10^6 cells/well in mTeSR1 medium supplemented with 10 μM ROCK inhibitor (Y-27632) (Tocris). Cells were cultured for 5-6 days in mTeSR1 medium until the cells reached 100% confluence when differentiation started (day 0). At day 0, the medium was changed to 2.5 ml RPMI+B27 without insulin (Invitrogen) and supplemented with 12 μM CHIR99021 (Tocris) and cells were treated in this medium for 24 hrs (day 1). At day 1, medium was changed to 3 ml RPMI+B27 without insulin and cells were cultured in this medium for 48 hrs (day 3). […]
Flow Cytometry: Cells were detached from cell culture plates by incubation with 0.25% trypsin-EDTA (Invitrogen) plus 2% chick serum (Sigma) for 5 minutes at 37° C. […] Cells were counted and 0.5-1 million cells were used as the sample size for labeling. […] Data were collected on a FACSCalibur™ flow cytometer (Beckton Dickinson) and analyzed using FlowJo™ software.
Biphasic modulation of the Wnt signaling pathway with small molecules is sufficient to direct the differentiation of monolayer cultured hPSCs to cardiomyocytes^21. […] We first determined the stage-specific mesodermal and cardiac progenitor populations generated by this small molecule (GiWi) protocol^22. […]

[3] = tested on: hPSCs; assay: Quantitative RT-PCR time course of GiFGF protocol; type: cell-based, human; settings: qRT-PCR, peaking at day 1
Description: as §1, with “Cells were fed every other day and cultured until day 20 for flow cytometry analysis and subculture of cardiac fibroblasts.” left out
RT-PCR and quantitative RT-PCR: Cell samples were collected using 0.25% trypsin-EDTA (Invitrogen) to remove the cells from cell culture plates. […] Quantitative RT-PCR (Q-PCR) was performed using Taqman PCR Master Mix and Gene Expression Assays (Applied Biosystems) in triplicate for each sample and each gene. […]

Compound	bFGF concentration at which fibroblast marker positive cells peaked ([1]; added on day 2 of differentiation) [ng/mL]	fibroblast marker positive cells (clone TE-7) ([1]; bFGF 0-125 ng/ml in CFBM, 20 days of differentiation, flow cytometry)	cell death ([1]; higher concentration of bFGF added on day 3 or day 4, after day 6 of differentiation)	generation of MF20+ cardiomyocytes ([1]; medium change and bFGF added on day 2 or day 3)	Brachyury expression [2]	early mesodermal gene T expression [3]
bFGF: fibroblast growth factor (WiCell) added to the defined fibroblast medium	75	concentration-dependent increase	significant cell death	effectively prevented	–	–
Cc1c[nH]c(-c2cnc(NCCNc3ccc(C#N)cn3)nc2-c2ccc(Cl)cc2Cl)n1 [CHIR, CHIR99021]	–	–	–	–	expressed in almost all cells	transiently up-regulated
